{"source": "patent US7144893B2", "about": "“4-aryl quinols and analogs thereof as therapeutic agents” (Cancer Research Technology Limited, priority 2001, dated 2006)", "key": {"[1]": {"tested_on": "human renal tumor xenograft RXF 1220", "assay": "In vivo antitumor activity, renal tumor xenograft", "settings": "15 mg/kg i.p."}, "[2]": {"tested_on": "MCF-7 wt and MCF-7/adr (breast cancer)", "assay": "Potency in MCF-7 wt and MCF-7/adr", "assay_type": "cell-based"}, "[3]": {"tested_on": "Mycobacterium tuberculosis H37Rv (ATCC 27294)", "assay": "Microplate Alamar Blue Assay (MABA), TAACF primary screening", "assay_type": "cell-based", "settings": "lowest concentration effecting a reduction in fluorescence of 90% relative to controls", "text": "Compounds were submitted to the Tuberculosis Antimicrobial Acquisition and Coordinating Facility (TAACF) for testing as antimycobacterial drugs.\nCompounds were subjected to in vitro evaluation for antimycobacterial activity.\nSee, for example, Collins et al., 1997."}, "[4]": {"tested_on": "p53", "assay": "p53 regulation in cancer cells", "assay_type": "cell-based", "settings": "MCF-7 (breast cancer) and HCT 116 (colon cancer)"}, "[5]": {"tested_on": "ZR^75 clones expressing different levels of epidermal growth factor receptor (EGFR)", "assay": "Activity against ZR75 clones with different EGFR levels", "assay_type": "cell-based"}, "[6]": {"tested_on": "human renal tumor xenograft RXF 393", "assay": "In vivo antitumor activity, renal tumor xenograft", "settings": "for DT (tumor doubling time) / T/C (optimal test/control): days 1, 5; for GD (growth delay): days 1, 5, difference in days to double initial tumor volume; for BWC (maximal body weight change): days 1, 5, model induces cachexia"}, "[7]": {"tested_on": "apoptotic events", "assay": "Induction of apoptotic events", "assay_type": "cell-based", "settings": "after lag phase (48 h)"}, "[8]": {"tested_on": "RXF 944L", "assay": "In vitro propidium iodide cytotoxicity assay", "assay_type": "cell-based, human", "settings": "mean ± S.D.", "procedure": "(§1) This assay was performed essentially according to the method described by Dengler et al., 1995. Human tumor cells (see Table 2) were plated in 96 well flat-bottomed microtiter plates (50 μL cell suspension, 1×10^5 or 5×10^4 cells/mL) and additional 50 μL of culture medium were added. After a 24 hr recovery, 50 μL of culture medium containing 50 μg/mL gentamycin was added into the 6 control wells or medium containing the test drug ([…]) was added to the wells. Each drug concentration was plated in triplicate. Following 3-6 days of incubation, depending on cell doubling time, a modified propidium iodide (PI) assay was performed. Culture medium was replaced by fresh medium and 50 μL of an aqueous propidium iodide solution (25 μg/mL) were added to each well. […] The fluorescence signal correlates with the numbers of dead cells. Fluorescence (FU1) was measured using a Millipore Cytofluor 2350 microplate reader (excitation 530 nm, emission 620 nm). Microplates were then kept at -18° C. for 24 hr, yielding a total cell kill. After thawing of the plates and a second fluorescence measurement (FU2), the amount of viable cells was calculated by subtraction of […]). Growth inhibition was expressed as treated/control ×100 (% T/C) (that is, growth inhibition at a given concentration is represented as a percentage of treated cell growth over control cell growth). Inhibiting concentrations (IC) were determined by plotting compound concentration versus cell viability. Mean IC50, IC70, and IC90 values were calculated for each individual cell line."}, "[9]": {"tested_on": "RXF 393NL", "assay": "In vitro propidium iodide cytotoxicity assay", "assay_type": "cell-based, human", "settings": "mean ± S.D.", "procedure": "as §1"}, "[10]": {"tested_on": "RXF 631L", "assay": "In vitro propidium iodide cytotoxicity assay", "assay_type": "cell-based, human", "settings": "mean ± S.D.", "procedure": "as §1"}, "[11]": {"tested_on": "MDA 468 (ER−) breast carcinoma", "assay": "Growth inhibitory assay (MTT, 72 hr)", "assay_type": "cell-based", "settings": "Homo sapiens, 72 hr exposure", "procedure": "(§2) Compounds were prepared as 10 mM top stocks, dissolved in DMSO, and stored at 4° C., protected from light, for a maximum period of 4 weeks. Human derived cell lines (HCT 116, HT29 colon carcinoma; MCF-7 (ER+), MDA 468 (ER−) breast carcinoma; A549 lung adenocarcinoma) were routinely cultivated at 37° C. in an atmosphere of 5% CO2 in RPMI 1640 medium supplemented with 2 mM L-glutamine and 10% fetal calf serum and subcultured twice weekly to maintain continuous logarithmic growth. Cells were seeded into 96-well microtiter plates at a density of 5×10^3 per well and allowed 24 hr to adhere before drugs were introduced (final concentration 0.1 nM–100 μM, n=8). Serial drug dilutions were prepared in medium immediately prior to each assay. At the time of drug addition and following 72 hr exposure, MTT was added to each well (final concentration 400 µg/mL). Incubation at 37° C. for 4 hr allowed reduction of MTT by mitochondrial dehydrogenase to an insoluble formazan product. Well contents were aspirated and formazan solubilized by addition of DMSO:glycine buffer (pH 10.5) (4:1). Absorbance was measured using an Anthos Labtec systems plate reader at 550 nm, and used as a measure of cell viability; thus cell growth or drug toxicity was determined."}, "[12]": {"tested_on": "HT29 colon carcinoma", "assay": "Growth inhibitory assay (MTT, 72 hr)", "assay_type": "cell-based", "settings": "Homo sapiens, HT-29, 72 hr exposure", "procedure": "as §2"}, "[13]": {"tested_on": "A549 lung adenocarcinoma", "assay": "Growth inhibitory assay (MTT, 72 hr)", "assay_type": "cell-based", "settings": "Homo sapiens, 72 hr exposure", "procedure": "as §2"}, "[14]": {"tested_on": "HCT 116 colon carcinoma", "assay": "Growth inhibitory assay (MTT, 72 hr)", "assay_type": "cell-based", "settings": "Homo sapiens, 72 hr exposure", "procedure": "as §2"}, "[15]": {"tested_on": "MCF-7 (ER+) breast carcinoma", "assay": "Growth inhibitory assay (MTT, 72 hr)", "assay_type": "cell-based", "settings": "Homo sapiens, MCF7, 72 hr exposure", "procedure": "as §2"}, "[16]": {"tested_on": "cellular glutathione", "assay": "Cellular glutathione", "assay_type": "cell-based"}, "[17]": {"tested_on": "colon sub-panel", "assay": "cells", "assay_type": "cell-based", "settings": "Homo sapiens, SW-620, read-out: mean LC50 in colon sub-panel", "procedure": "(§3) Compounds were tested for in vitro activity (48 h drug exposure) across 60 human cancer cell lines through the National Cancer Institute (NCI) Developmental Therapies Screening Program (Boyd et al., 1995)."}, "[18]": {"tested_on": "60 human cancer cell lines", "assay": "cells", "assay_type": "cell-based", "procedure": "as §3"}, "[19]": {"tested_on": "renal sub-panel", "assay": "cells", "assay_type": "cell-based", "settings": "Homo sapiens, 60 cell, read-out: mean LC50 in renal sub-panel", "procedure": "as §3"}, "[20]": {"tested_on": "MCF-7 (wt p53) and MDS 468 (mut p53) (breast cancer)", "assay": "Potency in MCF-7 (wt p53) and MDS 468 (mut p53)", "assay_type": "cell-based"}}}
{"smiles": "O=C1C=CC(O)(c2nc3ccccc3s2)C=C1", "note": "[Q05, 4-(Benzothiazol-2-yl)-4-hydroxy-2,5-cyclohexadien-1-one]", "values": [{"measurement": "DT (tumor doubling time)", "setting": "[1]; days 1, 5, 8", "result": 5.3}, {"measurement": "T/C (optimal test/control)", "setting": "[1]; days 1, 5, 8", "result": 66}, {"measurement": "GD (growth delay)", "setting": "[1]; days 1, 5, 8, difference in days to double initial tumor volume", "result": 2.2}, {"measurement": "BWC (maximal body weight change)", "setting": "[1]; days 1, 5, 8, model induces cachexia", "result": "−20"}, {"measurement": "relative potency MCF-7 wt and MCF-7/adr", "setting": "[2]", "result": "equi-potent"}, {"measurement": "MIC", "setting": "[3]", "result": 0.78, "unit": "µg/mL"}, {"measurement": "effect on p53", "setting": "[4]", "result": "up-regulates p53"}, {"measurement": "relative activity against ZR75 clones", "setting": "[5]", "result": "equi-active"}, {"measurement": "DT (tumor doubling time)", "setting": "[6]; 10 mg/kg i.p.", "result": 3.0}, {"measurement": "T/C (optimal test/control)", "setting": "[6]; 10 mg/kg i.p.", "result": 63}, {"measurement": "GD (growth delay)", "setting": "[6]; 10 mg/kg i.p.", "result": 0.9}, {"measurement": "BWC (maximal body weight change)", "setting": "[6]; 10 mg/kg i.p.", "result": "−16"}, {"measurement": "DT (tumor doubling time)", "setting": "[6]; 15 mg/kg i.p.", "result": 2.6}, {"measurement": "T/C (optimal test/control)", "setting": "[6]; 15 mg/kg i.p.", "result": 56}, {"measurement": "GD (growth delay)", "setting": "[6]; 15 mg/kg i.p.", "result": 0.5}, {"measurement": "BWC (maximal body weight change)", "setting": "[6]; 15 mg/kg i.p.", "result": "−19"}, {"measurement": "apoptosis induction", "setting": "[7]", "result": "induces apoptotic events"}, {"measurement": "IC50", "setting": "[8]; Homo sapiens", "result": "0.265 ± 0.06", "unit": "µg/mL"}, {"measurement": "IC90", "setting": "[8]; Homo sapiens", "result": "0.87 ± 0.09", "unit": "µg/mL"}, {"measurement": "Mean IC70", "setting": "[8]", "result": "0.48 ± 0.08", "unit": "µg/mL"}, {"measurement": "IC50", "setting": "[9]; Homo sapiens", "result": "0.34 ± 0.03", "unit": "µg/mL"}, {"measurement": "IC90", "setting": "[9]; Homo sapiens", "result": "8.63 ± 5.4", "unit": "µg/mL"}, {"measurement": "Mean IC70", "setting": "[9]", "result": "0.67 ± 0.09", "unit": "µg/mL"}, {"measurement": "IC50", "setting": "[10]; Homo sapiens", "result": 0.37, "unit": "µg/mL"}, {"measurement": "IC90", "setting": "[10]; Homo sapiens", "result": 0.84, "unit": "µg/mL"}, {"measurement": "Mean IC70", "setting": "[10]", "result": 0.56, "unit": "N.E. μg/mL"}, {"measurement": "IC50", "setting": "[11]", "result": 790, "unit": "nM"}, {"measurement": "IC50", "setting": "[12]", "result": 380, "unit": "nM"}, {"measurement": "IC50", "setting": "[13]", "result": 2350, "unit": "nM"}, {"measurement": "IC50", "setting": "[14]", "result": 40, "unit": "nM"}, {"measurement": "IC50", "setting": "[15]", "result": 350, "unit": "nM"}, {"measurement": "effect on cellular glutathione", "setting": "[16]", "result": "depletes cellular glutathione"}, {"measurement": "LC50", "setting": "[17]", "result": 1760, "unit": "nM"}, {"measurement": "CC50", "setting": "[18]; Homo sapiens, 60 cell, 48 h, read-out: mean LC50", "result": 3390, "unit": "nM"}, {"measurement": "GI50", "setting": "[18]; Homo sapiens, 60 cell, Table 5", "result": 290, "unit": "nM"}, {"measurement": "GI50", "setting": "[18]; Homo sapiens, mean over NCI 60 cell panel, 48 h drug exposure", "result": 230, "unit": "nM"}, {"measurement": "mean log10GI50", "setting": "[18]; NCI analysis", "result": "−6.63"}, {"measurement": "log10LC50", "setting": "[18]; NCI analysis, certain colon and renal cells lines", "result": "< −6.0"}, {"measurement": "mean LC50", "setting": "[19]", "result": 1570, "unit": "nM"}, {"measurement": "relative potency MCF-7 (wt p53) and MDS 468 (mut p53)", "setting": "[20]", "result": "equi-potent"}]}
